The results in this text go back to patent US6432640B1, “P53-induced apoptosis” (priority 1997, dated 2002).

Holding throughout (assay type): cell-based, human
The subject of data set [1] is DLD-1 cells. The data set can be described thus: p53-induced apoptosis in Ad-p53-infected CRC cells (H33258 staining). To be noted: for block of apoptosis: inhibitor given at (up to) 8 hours following Ad-p53 infection, apoptosis at 24 hours. How it is done: (§1) Cells and RNA. All cell lines used in this study were obtained from the American Type Culture Collection and were cultured in McCoy's medium supplemented with 10% fetal bovine serum (FBS). Cells were infected with recombinant adenoviruses containing either the p53 gene or the β-galactosidase gene (26) at a multiplicity of infection of 10-100. RNA was purified from cells at various times after infection using the MessageMaker Kit (Gibco/BRL). Northern blot analysis was performed as described (26).
(§2) Flow cytometry and other assays. Cells were collected with the aid of trypsin and incubated with CM-H2DCF-DA or NAO (Molecular Probes, Eugene, Oreg.) at concentrations of 10 and 0.4 μM, respectively, for 20 minutes at 37° C. prior to analysis by flow cytometry (14,15). To determine the fraction of apoptotic cells after various treatments, cells were stained with the DNA-binding dye H33258 and evaluated by fluorescence microscopy or flow cytometry as described (1). Superoxide production was assessed with lucigenin (29). In brief, 4-5×10^6 cells were collected with rubber policeman and resuspended in 1 ml of Earle's Balanced Salt Solution (Gibco BRL 14015-069, Life Technologies). Dark-adapted lucigenin (bis-N-methulacridinium nitrate, Sigma M8010) was added to the samples to a final concentration of 20 μM. Light emission was detected using a Berthold LB 9505C luminometer for 60 minutes at 37° C. Glutathione concentrations were measured using an assay kit purchased from Oxford Biomedical Res. Inc. according to the manufacturer's instructions. Caspase activation was assessed by cleavage of PARP (polyADP-ribose polymerase). Lysates from cells infected with Ad-p53 were Western blotted with an anti-PARP antibody, and the cleavage fragments were quantitated by densitometry (4).
To evaluate the patterns of gene expression following p53 expression, we employed SAGE, a technique which allows the quantitative evaluation of cellular mRNA populations (3). In brief, the method revolves around short sequence “tags” (11 bp), generated from defined positions within each mRNA molecule. Expression patterns are deduced from the abundance of individual tags. […] As previously shown, DLD-1 cells are among the ˜50% of CRC lines that undergo apoptosis in response to p53 (4). RNA was purified from cells 16 hours after infection, at least 8 hours before the onset of morphological signs of apoptosis.
To determine whether these steps were causally associated, we inhibited each step with specific pharmacologic agents and determined the effect of this inhibition on other components of the pathway.

In data set [2] the test system is DLD-1 cells. The data set can be described thus: Cell death by other inducers of apoptosis. How it is done:
as §2, with “(4). […]” for “(4).”

For the next data set, the system named is PIGs (p53-induced genes). The experiment in a line: PIG expression in DLD-1 cells (Northern blot). As to conditions: for PIG induction by other inducers of ROS or apoptosis: DLD-1 cells. As for the experimental part: as §1
To determine the specificity of PIG expression for the p53-dependent apoptotic process, we performed experiments with other inducers of ROS or apoptosis.

Data set [3] has as its system DLD-1 cells. The experiment in a line: ROS production in Ad-p53-infected cells (lucigenin chemiluminescence). As to conditions: treated 12 hours after Ad-p53 infection. How it is done: as §2, with “(4). […]” for “(4).”
The subject of data set [4] is DLD-1 cells. The data set can be described thus: ROS by CM-DCF-DA and cardiolipin by NAO, flow cytometry. How it is done:
FIG. 4A. DLD-1 cells were infected with Ad-p53 or control (Ad-lacZ) viruses and harvested after 27, 35, or 42 hours. Cells were incubated with CM-DCF-DA, a probe of ROS, or NAO, a probe of the mitochondrial membrane cardiolipin, and analyzed by flow cytometry. The mean fluorescence of the control cells is indicated by vertical lines in each box. The pro-oxidant drug menadione was used as a positive control to induce oxidative stress.
Flow cytometry and other assays. […] To determine the fraction of apoptotic cells after various treatments, cells were stained with the DNA-binding dye H33258 and evaluated by fluorescence microscopy or flow cytometry as described (1). Superoxide production was assessed with lucigenin (29). […] Light emission was detected using a Berthold LB 9505C luminometer for 60 minutes at 37° C. Glutathione concentrations were measured using an assay kit purchased from Oxford Biomedical Res. Inc. according to the manufacturer's instructions. Caspase activation was assessed by cleavage of PARP (polyADP-ribose polymerase). Lysates from cells infected with Ad-p53 were Western blotted with an anti-PARP antibody, and the cleavage fragments were quantitated by densitometry (4). […]
(In general: A flow cytometer gives signals particle by particle.)

Data set [5] relates to DLD-1 cells. The experiment in a line: p53-mediated growth arrest dependent on p21 (flow cytometry). As for the experimental part:
as §2, with “(4). […]” for “(4).”

Data set [6] concerns DLD-1 cells. The data set can be described thus: Toxicity of inhibitor to cells at the dose used. To be noted: 100 μM. How it is done:
Finally, we treated cells with bongkrekic acid (BA), a specific inhibitor of mitochondrial ATP translocase which can block the mitochondrial permeability transition pore opening thought to be required for ROS-dependent forms of apoptosis (13). […] BA was non-toxic at the dose used (100 μM). While BA inhibited the p53-apoptotic process dependent on ROS production, it had no effect on the p53-mediated growth arrest dependent on p21 as assessed by flow cytometry.

Another data set relates to PIG3. The data set can be described thus: PIG3 induction by endogenous p53 in six CRC cancer cell lines. As for the experimental part:
as §1
As a further test of the p53-dependency of PIG3 induction, we determined whether PIG3 could be induced by endogenous p53 rather than through the exogenous Ad-p53 source. Six CRC cancer cell lines were each treated with adriamycin, a DNA-damaging and apoptotic-inducing agent known to increase endogenous p53 levels.

Setting [7] is: 100 μM, treated 12 hours after Ad-p53 infection.

Consider `C[C@@H]1C[C@@H]([C@H](O)CC2CC(=O)NC(=O)C2)C(=O)[C@@H](C)C1` [cycloheximide], for which the block of apoptosis with DLD-1 cells [1] came out at 79%.

`COc1ccc2c(c1)c(CC(=O)O)c(C)n2C(=O)c1ccc(Cl)cc1` [indomethacin]: in the data set with DLD-1 cells [2], the cell death result is “extensive cell death”. Moreover, the “PIG induction by other inducers of ROS or apoptosis” value (from here on “PIG induction by other inducers”) with PIGs (p53-induced genes) was “did not result in the expression of any PIG”.

In the case of `c1ccc2c(c1)[I+]c1ccccc1-2` [DPI, diphenyleneiodonium chloride], the inhibition – broadly, the share of the control response that was lost under treatment – at 25 µM in the data set on DLD-1 cells [3] (Homo sapiens, DLD-1, 25 μM, measured 12 hours later, three independent experiments) fell in the range of 71 to 85%; in the data set on DLD-1 cells [1] (Homo sapiens, DLD-1, 25 μM, treated 12 hours after Ad-p53 infection, measured 12 hours later, three independent experiments), 73 to 77%. The PIG3 production result in the data set on PIGs (p53-induced genes) is given as “did not inhibit”.

Turning to `OC[C@H]1O[C@@H](n2cnc3cc(Cl)c(Cl)cc32)[C@H](O)[C@@H]1O` [DRB, 5,6-dichlorobenimidizole riboside], the “expression of PIGs” value with PIGs (p53-induced genes) (Ad-p53-infected cells, DRB at 8 hours following infection) was “inhibit the expression of PIGs”. Further, the block of apoptosis in the data set with DLD-1 cells [1] is 83+/−3%.

For `OO` [hydrogen peroxide], the “PIG induction by other inducers” value in the data set with PIGs (p53-induced genes) was “only p21 was induced”.

In the case of `CC1=CC(=O)c2ccccc2C1=O` [menadione], the “PIG induction by other inducers” value in the data set on PIGs (p53-induced genes) is listed as “none were induced”. Also, the “ROS (DCF fluorescence)” value in the data set with DLD-1 cells [4] is recorded as “increase in ROS”.

As to `CO[C@H](C/C=C\C=C\CC/C=C/C[C@H](C)/C=C/C(=C\C(=O)O)CC(=O)O)/C(C)=C\C=C(/C)C(=O)O` [BA, bongkrekic acid], the ROS production result in the data set with DLD-1 cells [3] (100 μM) is “inhibit neither”. The PIG3 expression entry in the data set with PIGs (p53-induced genes) (setting [7]) is listed as “inhibit neither”. Besides, in the data set on DLD-1 cells [1] (setting [7]), the “inhibition of subsequent apoptosis” value is 86-93%. Besides, the “effect on p53-mediated growth arrest dependent on p21” value with DLD-1 cells [5] is “no effect”. The “toxicity at the dose used” value with DLD-1 cells [6] is “non-toxic”.

Turning to `COc1cccc2c1C(=O)c1c(O)c3c(c(O)c1C2=O)C[C@@](O)(C(=O)CO)C[C@@H]3O[C@H]1C[C@H](N)[C@H](O)[C@H](C)O1` [adriamycin], the PIG3 induction result in the data set on PIG3 (three CRC lines with mutant p53 genes) was “not in the three lines with mutant p53 genes”; with PIG3 (three CRC lines with wild-type p53 genes), “strongly induced”.

In the case of ceramide, the cell death entry in the data set on DLD-1 cells [2] was “extensive cell death”. Also, the “PIG induction by other inducers” value in the data set with PIGs (p53-induced genes) is on record as “did not result in the expression of any PIG”.

For `S=C(S)N1CCCC1` [PDTC, pyrrolidine dithiocarbamate], the “block of apoptosis elicited by p53” value in the data set on DLD-1 cells [1] (p53-expressing cells treated with anti-oxidant) is listed as “able to block the apoptosis”.
